# Assay results from US6887879B2, “Pharmaceutical combination of antiviral agents” (priority 1999, dated 2005).
# Read-outs that look alike come from different tables or passages of the source.
# Legend:
# [1] = tested on: CBMCs, MT-2, H9, Jurkat and U937; assay: Cytotoxicity, WST-1 cell viability assay; assay type: cell-based, human; conditions: WST-1, MT-2, H9, Jurkat and U937
# Experimental: The cellular toxicity of the compounds was also tested by WST-1 staining through assessing proliferation of MT-2, H9, Jurkat, U937, and CBMCs. The established cell lines were cultured in RPMI medium in 96-well plates at a density of 5×10^4 cells/well while CBMCs were plated at a concentration of 0.5×10^6/well. A 10-fold serial diluted (10^−4−10^−7 M) compound was added at day zero. At day 4, the cells were passaged by changing half medium containing appropriately diluted compound. The cell activities were assessed at day 7 using the WST-1 reagent (Boehringer Mannheim) following the protocol provided by the supplier.
# [2] = Cytotoxicity, [3H]-thymidine uptake, PBMC; assay type: cell-based; conditions: human, PHA-stimulated PBMCs
# Experimental: (§1) The cellular toxicity of the BCH compounds were assessed on various cells using [^3H]-thymidine uptake. The various cells, including Molt-4, HT1080, DU-145, HepG 2 and HSF, were plated at a concentration of 1-2×10^3 cells per well (96 well plates). However, PHA-stimulated PBMCs were cultured at a concentration of 4×10^4. After a 24 hr incubation period, 10-fold serial diluted compounds (10^−4 M to 10^−10 M) were added to the culture medium and the cells were further incubated for 72 hrs. [^3H]-thymidine was added during the final 18 hr incubation period. After incubation with the [^3H]-thymidine, the cells were washed once with PBS, treated with trypsin it the cells were adherent, and then resuspended in water (hypotonic lysing of cells) The cellular extract was applied directly to a Tomtec Harvester 96. Using this instrument the extracted DNA is adsorbed onto filters, washed and the incorporated [^3H]-thymidine is then counted.
# [3] = tested on: HIV-1 clinical isolate 4877; assay: microbe, parasite or virus in culture; assay type: cell-based; conditions: Human immunodeficiency virus 1, read-out: EC50 in CBMCs
# Experimental: (§2) HIV-1IIIB laboratory strain and HXB2-D recombinant of HIV-1 were kindly supplied by R. C. Gallo (Institute of Human Virology, Baltimore, Md.). […] The recombinant viruses were generated by transfection of proviral DNA into MT-4 cells with Lipofectamine using the protocol recommended by the manufacturer .(Gibco BRL, Montreal, Canada). […] Stock viruses were prepared from clarified culture supernatants by centrifugation and stored at −70° C. The viruses were titrated by limited dilution with a 4-fold serial dilution.
# (§3) The population of HIV-1 in infected individual is quasispecies and the sensitivity of these different viruses found in clinical isolates to antiviral chemotherapy might be quite variable. In addition, HIV-1 isolates obtained from patients receiving long-term antiretroviral therapy might behave differently from cloned virus containing genetically engineered mutations in the RT gene. For these reasons, clinical isolates of HIV-1 from antiviral naive and drug-treated patients were assayed in PHA-stimulated CBMCs for their sensitivity to DXG and DAPD accompanied with approved antiretroviral agents. The genotype of the HIV-1 clinical isolates were determined as described above.
# [4] = tested on: HIV-1 clinical isolate 4205; assay: microbe, parasite or virus in culture; assay type: cell-based
# Experimental: as §2, §3
# [5] = tested on: HIV-1 clinical isolate 3350; assay: microbe, parasite or virus in culture; assay type: cell-based
# Experimental: as §2, §3
# [6] = tested on: HIV-1 clinical isolate 4924; assay: microbe, parasite or virus in culture; assay type: cell-based; conditions: Human immunodeficiency virus 1, read-out: EC50 in CBMCs
# Experimental: as §2, §3
# [7] = tested on: HIV-1 clinical isolate 3887; assay: microbe, parasite or virus in culture; assay type: cell-based; conditions: Human immunodeficiency virus 1, read-out: EC50 in CBMCs
# Experimental: as §2, §3
# [8] = tested on: HIV-1 clinical isolate 4242; assay: microbe, parasite or virus in culture; assay type: cell-based
# Experimental: as §2, §3
# [9] = tested on: HIV-1 clinical isolate 4833; assay: microbe, parasite or virus in culture; assay type: cell-based; conditions: Human immunodeficiency virus 1, therapy Saquinavir (48 weeks), read-out: EC50 in CBMCs
# Experimental: as §2, §3
# [10] = Cytotoxicity, [3H]-thymidine uptake, HSF; assay type: cell-based; conditions: human, human skin fibroblasts (HSF)
# Experimental: as §1
# [11] = Cytotoxicity, [3H]-thymidine uptake, HepG2; assay type: cell-based; conditions: human, HepG2 cells
# Experimental: as §1
# [12] = Cytotoxicity, [3H]-thymidine uptake, DU145; assay type: cell-based; conditions: human, DU145 cells
# Experimental: as §1
# [13] = Cytotoxicity, [3H]-thymidine uptake, Molt-4; assay type: cell-based; conditions: human, Molt-4 cells
# Experimental: as §1
# [14] = Cytotoxicity, [3H]-thymidine uptake, HT-1080; assay type: cell-based; conditions: human, HT-1080 cells
# Experimental: as §1
# [15] = tested on: recombinant HXB2-D 10R/46I/63P/82T/84V; assay: microbe, parasite or virus in culture; assay type: cell-based, HIV-1; conditions: Human immunodeficiency virus 1, HXB2, read-out: EC50 in CBMCs
# Experimental: as §2
# [16] = tested on: recombinant HXB2-D 41L/70R/215Y/219Q; assay: microbe, parasite or virus in culture; assay type: cell-based, HIV-1
# Experimental: as §2
# recombinant HXB2-D 65R = assay: microbe, parasite or virus in culture; assay type: cell-based, HIV-1; conditions: Human immunodeficiency virus 1, HXB2, read-out: EC50 in CBMCs
# Experimental: as §2
# recombinant HXB2-D WT = assay: microbe, parasite or virus in culture; assay type: cell-based, HIV-1; conditions: Human immunodeficiency virus 1, HXB2, read-out: EC50 in CBMCs
# Experimental: as §2
# recombinant HXB2-D 74V = assay: microbe, parasite or virus in culture; assay type: cell-based, HIV-1; conditions: Human immunodeficiency virus 1, HXB2, read-out: EC50 in CBMCs
# Experimental: as §2
# [17] = tested on: recombinant HXB2-D 106A/181C; assay: microbe, parasite or virus in culture; assay type: cell-based, HIV-1; conditions: Human immunodeficiency virus 1, HXB2, read-out: EC50 in CBMCs
# Experimental: as §2
# [18] = tested on: recombinant HXB2-D 41L/215Y/184V; assay: microbe, parasite or virus in culture; assay type: cell-based, HIV-1
# Experimental: as §2
# recombinant HXB2-D 184V = assay: microbe, parasite or virus in culture; assay type: cell-based, HIV-1; conditions: Human immunodeficiency virus 1, HXB2, read-out: EC50 in CBMCs
# Experimental: as §2
# [19] = tested on: HIV-1 clinical isolate 4526; assay: Antiviral assay, HIV-1 clinical isolate 4526, CBMCs; assay type: cell-based; conditions: Human immunodeficiency virus 1, naive
# Experimental: as §2, §3
# [20] = tested on: HIV-1 clinical isolate 4246; assay: Antiviral assay, HIV-1 clinical isolate 4246, CBMCs; assay type: cell-based; conditions: Human immunodeficiency virus 1, read-out: EC50 in CBMCs
# Experimental: as §2, §3
# HIV-1IIIB = assay: Anti-HIV-1 antiviral assay, laboratory strain HIV-1IIIB, RT activity in culture supernatants
# Experimental: Most experiments were performed with a laboratory strain HIV-1III. […] The cells were incubated with virus using the indicated multiplicity of infection (MOI) for 2-3 hrs. The MOI used for each experiment was dependent upon the cell line and virus strain used, and was generally in the range of 0.005 to 0.5. For example, in assays performed using the established cell line MT-2, HIV-1IIIB at an MOI of 0.005 was used to infect cells. The unbound virus was then removed by washing the cells, followed by plating the cells into a 96-well plate. The infected cells were cultured in the presence of a serial concentrations of the test compound for 5-7 days. The anti-HIV-1 efficacy was determined by testing for HIV-1 RT activity in the cell culture supernatants. All assays were performed in duplicate and at least two independent experiments were performed. […] The susceptibilities of the HIV-1 variants to antiretroviral agents are expressed as the mean of the EC50 determinations.
# [21] = Human immunodeficiency virus 1, read-out: EC50 in CBMCs
# [22] = Human immunodeficiency virus 1, HXB2, read-out: EC50 in CBMCs
structure (smiles),measurement,setting,value
"Nc1nc2c(ncn2[C@H]2CO[C@@H](CO)O2)c(=O)[nH]1 [DXG, (−)-β-D-1,3-dioxolane guanine]",no toxicity up to (highest concentration tested),[1],≥ 100 µM
same,CC50 at 72 h,[2],> 500000 nM
same,EC50,[3],45 nM
same,EC50,[4]; [21],1100 ± 1190 nM
same,decreased susceptibility compared to the lamivudine and AZT sensitive isolates,"[4]; isolate 4205, 184V",~5 fold
same,EC50,[5]; [21],650 ± 330 nM
same,decreased susceptibility compared to the lamivudine and AZT sensitive isolates,"[5]; isolate 3350, 184V",~5 fold
same,EC50,[6],20 nM
same,EC50,[7],180 ± 7 nM
same,"sensitivity of isolate 4242, in words",[8]; 41L/70R/215Y in RT,remained sensitive
same,EC50,[8]; [21],210 ± 7 nM
same,EC50,[9],170 ± 60 nM
same,CC50 at 72 h,[10],≥ 500000 nM
same,CC50 at 72 h,[11],> 500000 nM
same,CC50 at 72 h,[12],> 500000 nM
same,CC50 at 72 h,[13],> 500000 nM
same,CC50 at 72 h,[14],> 500000 nM
same,EC50,[15],120 ± 30 nM
same,"sensitivity of AZT resistant virus, in words","[16]; 41L, 70R, 215Y and 219Q, CBMCs, also observed in MT-2 cells",remained completely sensitive
same,EC50,[16]; [22],240 ± 20 nM
same,EC50,recombinant HXB2-D 65R,1200 ± 200 nM
same,EC50,recombinant HXB2-D WT,210 ± 50 nM
same,EC50,recombinant HXB2-D 74V,1300 ± 800 nM
same,EC50,[17],50 ± 7 nM
same,decreased sensitivity,[18]; 41L and 215Y combined with 184V,~2 fold
same,EC50,[18]; [22],410 ± 100 nM
same,EC50,recombinant HXB2-D 184V,440 ± 70 nM
same,EC50,[19],55 ± 27 nM
same,EC50,[20],120 ± 80 nM
same,EC50,"HIV-1IIIB; Human immunodeficiency virus 1, H9, read-out: EC50, mean values ± SD",60 ± 50 nM
same,EC50,"HIV-1IIIB; Human immunodeficiency virus 1, Jurkat, read-out: EC50, mean values ± SD",340 ± 140 nM
same,EC50,"HIV-1IIIB; Human immunodeficiency virus 1, MT2, read-out: EC50, mean values ± SD",85 nM
same,EC50,"HIV-1IIIB; Human immunodeficiency virus 1, MT4, read-out: EC50, mean values ± SD",51 ± 9 nM
same,EC50,"HIV-1IIIB; Human immunodeficiency virus 1, U-937",410 nM
same,EC50,"HIV-1IIIB; Human immunodeficiency virus 1, read-out: EC50, mean values ± SD",46 nM
same,anti-HIV-1 efficacy fold less than that of AZT,HIV-1IIIB; various cells,5-10 fold
